Common to all, as to assay type: cell-based
Assay [1] deals with caspase 3/7 in A549 cells (human lung cancer, adenocarcinoma). The assay is described as follows: Test of inducing apoptosis of A549 cells (caspase 3/7 activity). The note with it: 5 hours. As to the method: (Test of Inducing Apoptosis of A549 Cells (Human Lung Cancer, Adenocarcinoma))
To evaluate apoptosis induction of a sample (Compound 3), the activity of caspase 3/7 was measured.
1. Measurement Reagents, Equipment and Instruments
APO-ONE Homogeneous Caspase-3/7 Assay (G7790, Lot No. 314408; Promega)
Fluorescence plate reader (SpectraMax GEMINI EM; Molecular Devices)
Cells: A549 cells (obtained from the Research Resource Bank of the Human Sciences Foundation)
Medium: 10% FBS and 0.1 mmol/L Non-Essential Amino Acids Solution-containing MEM medium
A 1 mmol/L solution prepared with DMSO was prepared with a medium so as to have a final concentration (the final concentration of DMSO was set to be 0.1%).
A sample was weighed and a medium was added so as to obtain 500 μg/mL. While warming at 37° C., sonication was performed for 60 minutes to make dissolution. Filtration was performed by a 0.22 μm-filter. The 500 μg/mL solution was subjected to serial dilution in a common ratio of 10 with the medium to prepare 50, 5, 0.5, 0.05 and 0.005 μg/mL.
(1) (The day before test)
On a 96-well plate, A549 cells were seeded in a ratio of 10000 cells/100 μL/well. […]
(4) Reaction was performed at room temperature while blocking light. Two hours later, fluorescence was measured (excitation wavelength: 499 nm, fluorescence wavelength: 521 nm)

Assay [2] deals with A549 (lung cancer). The assay is described as follows: Evaluation of anticancer action, cell proliferation inhibition (WST-8), A549. The note with it: Homo sapiens, A549, about 72 hours. The text has this:
(§1) The cell proliferation inhibitory effects of a test substance (Compound 3) on various types of cancer cells were examined.
(§2) 1. Measuring Reagent and Analysis Software
(§3) WST-8 Kit (Cat. No. 260-96165 or 260-96162; manufactured by Kishida Chemical Co., Ltd.) for counting cell number
(§4) Software for graph making and measurement of GI50 value: XLfit 5.2 (ID Business Solutions Ltd.)
(§5) 2. Cells and Culture Conditions
(§6) Five types of cells and medium (the following Table) were used. The cells were obtained from the Research Resource Bank of the Human Sciences Foundation.
(§7) On the day when a sample was to be added, the sample was weighed and a medium for each type of cells was added so as to be 500 μg/mL. Sonication was performed while warming at 37° C. for 60 minutes to be dissolved. Then, filtration was performed by a 0.22 m-filter. The 500 μg/mL-solution was diluted with the medium for each type of cells to prepare 200 μg/mL, 60 μg/mL, 20 μg/mL, 6 μg/mL, 2 μg/mL, 0.6 μg/mL and 0.2 μg/mL solutions, which were specified as two-fold concentration test solutions (the final concentrations of the test substance were 250 µg/mL, 100 μg/mL, 30 μg/mL, 10 μg/mL, 3 μg/mL, 1 μg/mL, 0.3 μg/mL, […], respectively). […]
(§8) (8) Absorbance values at 450 nm and 650 nm were measured to calculate O.D. 450 and O.D. 650. […]
(§9) ODdrug-exposed wells: absorbance of a well containing a sample […]

The test system of assay [3] is MKN1 (stomach cancer). The assay is described as follows: Evaluation of anticancer action, cell proliferation inhibition (WST-8), MKN1. The note with it: Homo sapiens, MKN-1, MKN1, about 72 hours.
Text: as §1, §2, §3, §4, §5, §6, §7, §8, §9

Assay [4] concerns HL60 (myelocytic leukemia). The assay is described as follows: Evaluation of anticancer action, cell proliferation inhibition (WST-8), HL60. As to conditions: Homo sapiens, HL-60, HL60, about 96 hours.
Text: as §1, §2, §3, §4, §5, §6, §7, §8, §9

For assay [5], the system named is MCF-7 (breast cancer). The assay is described as follows: Evaluation of anticancer action, cell proliferation inhibition (WST-8), MCF-7. The note with it: Homo sapiens, MCF7, MCF-7, about 72 hours.
Text: as §1, §2, §3, §4, §5, §6, §7, §8, §9

Converted amounts (≈) assume the structure as drawn.

Consider `O=C(Nc1ccc(S(F)(F)(F)(F)F)cc1)c1cc(O)c(O)c(O)c1` [Compound 3, 4-(3,4,5-trihydroxybenzoylamino)pentafluorosulfanylbenzene], for which the results for the “caspase 3/7 activity” value in assay [1] (0.005 μg/mL to 5 μg/mL) and in assay [1] (all concentrations 0.005 μg/mL to 500 μg/mL) were “high activity was observed” and “tends to enhance caspase 3/7 activity”, respectively. For the same molecule, the GI50 in assay [2] was 13.3 µg/mL (≈ 35.8 µM); in assay [3], 5.1 µg/mL (≈ 13.7 µM); in assay [4], 1.7 µg/mL (≈ 4.58 µM); in assay [5], 13.6 µg/mL (≈ 36.6 µM).
